Laboratory results published in patent US20220087996A1, “Histone acetylase p300 inhibitor and use thereof” (HINOVA PHARMACEUTICALS INC., priority 2018, published 2022).
Read-outs that look alike come from different tables or passages of the source.

Columns and labels:
CWR22RV1 cells = experiment: Compound in combination with CDK4/6 inhibitor palbociclib on proliferation of CWR22RV1 cells; type: cell-based, human; conditions: for IC50: Homo sapiens, read-out: IC50 against the activity of CWR22RV1 cells
Description: The IC50 values (nM) of the compound according to the present invention, palbociclib, and the combination of the compound according to the present invention and palbociclib against CWR22RV1 cell proliferation were tested and calculated, and the detailed procedures were as follows:
(§1) 1) CWR22RV1 cells were subcultured in cell culture medium, and the cells in good growth condition were seeded in a 96-well plate, 60 μL for each well, and the cell number in each well was 2000. The plate was incubated overnight in a 37° C., 5% CO2 cell incubator. 2) The drug was prepared as 10 mM stock solution with dimethyl sulfoxide (DMSO). Prior to use, the stock solution was diluted 3 times with DMSO, and then further diluted as 3-fold gradient to obtain 9 concentration gradients. Then, each concentration of compound was diluted 200 times with the culture solution (ensuring that the DMSO concentration in the culture system was 0.1%), and two replicate wells were set for each concentration. 20 μL of diluted compound solution was added to the cell culture well (with final concentrations of 10 μM, 3.3 μM, 1.1 μM . . . ). Palbociclib was diluted with culture medium to 500 nM, 150 nM, 50 nM, 5 nM, and 20 μL diluted compound solution was added to the corresponding cell culture wells (with a final concentration of 100 nM, 30 nM, 10 nM, 1 nM). The plate was gently shaken to mix. In addition, 3 negative control wells containing only cells and 3 blank control wells containing only culture medium were included (6 wells were each added 20 μL DMSO diluted 200 times with culture medium).
(§2) (1) After culturing for 6 days, 10 μL CCK-8 was added to each well, and the plate was continually cultured in a 37° C., 5% CO2 cell incubator for 2.5 h. (2) The absorbance (OD value) was detected at 450 nm using a multifunctional microplate reader. (3) The data were analyzed by Dose-response-inhibition equation in the software GraphPad Prism6, and the IC50 value was obtained.

MCF-7 cells = experiment: Compound in combination with CDK4/6 inhibitor palbociclib against proliferation of MCF-7 cells; type: cell-based; conditions: for IC50: Homo sapiens
Description: as §1, §2
Using the same method as Experimental example 4, CWR22RV1 cells were replaced with MCF-7 cells, and the IC50 values (nM) of the compound according to the present invention, palbociclib, as well as the combination of the compound according to the present invention and palbociclib against the proliferation of MCF-7 cells w ere tested and calculated.

[1] = combination with CDK4/6 inhibitor palbociclib

IC50 (MCF-7 cells; MCF7, in combination with 10 nM palbociclib): 19 nM
IC50 (MCF-7 cells; MCF7, in combination with 30 nM palbociclib): 1.6 nM
IC50 (MCF-7 cells; MCF7, in combination with 100 nM palbociclib): 1.5 nM
IC50 (MCF-7 cells; MCF7, single agent): 81 nM
Structure (SMILES): CNC(=O)Nc1ccc2c(c1)CC[C@@]21OC(=O)N(CC(=O)N2C(C)CC[C@H]2c2cc(F)c(F)c(F)c2)C1=O (stereo in doubt) [Example 205, 1-((R)-3′-(2-((2S,5R)-2-(3,4,5-trifluorophenyl)-5-methylpyrrolidin-1-yl)-2-oxoethyl)-2′,4′-dioxo-2,3-dihydrospiro[indene-1,5′-oxazolidine]-5-yl)-3-methylurea]
IC50 (CWR22RV1 cells; CWR22Rv1, in combination with 1 nM palbociclib): 130 nM
IC50 (CWR22RV1 cells; CWR22Rv1, in combination with 10 nM palbociclib): 110 nM
IC50 (CWR22RV1 cells; CWR22Rv1, in combination with 30 nM palbociclib): 40 nM
IC50 (CWR22RV1 cells; CWR22Rv1, in combination with 100 nM palbociclib): < 1 nM
IC50 (CWR22RV1 cells; CWR22Rv1, single agent): 120 nM
inhibitory activity on CWR22RV1 cells when combined with palbociclib, versus either agent alone (CWR22RV1 cells; [1]): much higher
inhibitory activity on MCF-7 cells when combined with palbociclib, versus either agent alone (MCF-7 cells; [1]): much higher
